Common to all, as to settings: read-out: Binding constants KA (1 × 10^5) L⋅mol^-1 (converted)
Experiment [1] has as its target T1, Sortase A (SrtA) (Staphylococcus aureus, UniProt Q2FV99, C184A).
T1 construct: SrtAΔN59 (residues 60–206)
Nature of the experiment: fluorescence spectroscopy quenching with purified mutant, binding constant KA, n = […].

Experiment [2] addresses T2, Sortase A (SrtA) (Staphylococcus aureus, UniProt Q2FV99, G192A).
T2 construct: SrtAΔN59 (residues 60–206)
Described as above.

In experiment [3] the target is T3, Sortase A (SrtA) (Staphylococcus aureus, UniProt Q2FV99).
T3 construct: SrtAΔN59 (residues 60–206)
Nature of the experiment: fluorescence spectroscopy quenching, binding constant KA, n = […]; also FRET inhibition of purified SrtAΔN59 (IC50 […]).

As for `O=C(/C=C/c1ccc(O)c(O)c1)O[C@@H]1C[C@](O)(C(=O)O)C[C@@H](O)[C@H]1O` [CHA, chlorogenic acid], the Kd was 2130 nM at Sortase A (SrtA) [1], 2000 nM on Sortase A (SrtA) [2] and 1120 nM at Sortase A (SrtA) [3].

Source of the values: article PMC4608362, “The therapeutic effect of chlorogenic acid against Staphylococcus aureus infection through sortase A inhibition” (Frontiers in Microbiology, 2015).
